Results as given in patent US20230339896A1, “HPK1 INHIBITORS AND USES THEREOF” (QILU REGOR THERAPEUTICS INC., priority 2020, published 2023).
Read-outs that look alike come from different tables or passages of the source.

Legend:
[1] = molecular target: HPK1 (Homo sapiens (Human), UniProt Q92918); experiment: HPK1 biochemical assay (ADP-GLO Kinase Assay)
Excerpt: This example used the ADP-GLO™ Kinase Assay to measure the effect of potential HPK1 inhibitor compounds on HPK1 kinase activity.
The ADP-GLO™ Kinase Assay (Promega Corp., Madison, WI) measures ADP formed from a kinase reaction. According to the manufacture, the ADP formed in a kinase assay is first converted into ATP, which is then used to generate light in a luciferase reaction. The luminescence generated correlates with kinase activity. An exemplary experimental setting is described below, though minor adjustments can be made in individual assays.
Serial 3-fold dilution of compoounds from 10 µM (top concentration) to 0.508 nM (lowest concentration). Positive control is 10 µM Reference + enzyme + substrate. Negative control is 1% DMSO + enzyme + substrate.
40 mM Tris pH7.5; 20 mM MgC12, 0.1 mg/ml BSA, 50 µM DTT Buffer stock
• 1) The compounds were diluted to 1 mM, by mixing 10 µL of 10 mM respective compound stocks with 90 µL of DMSO. • 2) The compounds were then diluted 3-fold for 10 doses (5 µL to 10 µL dilution) by BRAVO. The top compound conc. was 1 mM (100×), DMSO Conc. was 100%. • 3) Transfer 100 nL of each diluted compound sample to 384-well plate (Corning-4512) by ECHO. • 4) Centrifuge the plate at 1,500 rpm for 1 minute.
20 µM ATP, 0.2 µg/µL MBP in Kinase Buffer (final concentration: 10 µM ATP, 0.1 µg/µL MBP)
• 5. Preparation of 2× HPK1 working solution with assay buffer. HPK1 final concentration was 0.6 ng/µL. […] Add 5 µL/well of 2× HPK1 working solution, Centrifuge at 1,500 rpm for 1 minute. • 7. Add 5 µL/well of 2× ATP-Substrate, Centrifuge at 1,500 rpm for 1 minute. • 8. Incubate at 25° C. for 1 hour (or 6 hours for compounds with high potency). • 9. Add 5 µL/well ADP-GLO™ Reagent to stop the kinase reaction and deplete the unconsumed ATP. Centrifuge at 1,500 rpm for 1 minute. Incubate at 25° C. for 40 min. • 10. Add 10 µL of Kinase Detection Reagent to convert ADP to ATP. Centrifuge at 1,500 rpm for 1 minute. Incubate at 25° C. for 40 min. • 11. Record luminescence signal on an Envision plate reader (384-CTG).
The percent (%) inhibition at each concentration of compound is calculated based on and relative to the signal in the High and Low control wells contained within each assay plate. […] The concentrations and % inhibition values for tested compounds were plotted and the concentration of compound required for 50% inhibition (IC50) was determined with a Three-parameter logistic dose response equation. The endpoint value (IC50) for the reference peptide/compound was evaluated in each experiment as a quality control measure. If the endpoint value was within 3-fold of the expected value, then the experiment was deemed acceptable.

[2] = Metabolic stability in liver microsomes, human (HLM); type: in vitro ADME; details: 1 µM compound, NADPH; for half-life at 1 µM: human, liver microsomes, pH 7.4, 0.5 mg/mL protein, read-out: Metabolic Stability T½ (min), HLM
Protocol: (§1) This assay is for determining the stability of test compound in liver microsomes. The study will be conducted in accordance with International Bioethical Standards “World Medical Association Declaration of
(§2) Human, Sprague Dawley Rat, CD-1 mouse, Beagle Dog and Cynomolgus Monkey Liver Microsomes samples purchased from BD Gentest or RILD.
(§3) 0.1 M Potassium phosphate buffer, pH 7.4: • Buffer A: 1.0 L of 0.1 M monobasic Potassium Phosphate buffer containing 1.0 mM EDTA • Buffer B: 1.0 L of 0.1 M Dibasic Potassium Phosphate buffer containing 1.0 mM EDTA • Buffer C (K-phosphate buffer): 0.1 M Potassium Phosphate buffer, 1.0 mM EDTA, pH 7.4 by titrating 700 mL of buffer B with buffer A while monitoring the pH meter
(§4) • Prepare 3× test compound or positive control solutions: 500 µM spiking solution: add 10 µL of 10 mM DMSO stock solution into 190 µL ACN. • 1.5 µM spiking solution in microsomes (0.75 mg/mL): add 1.5 µL of 500 µM spiking solution and 18.75 µL of 20 mg/mL liver microsomes into 479.75 µL of K-phosphate buffer.
(§5) Add 30 µL of 1.5 µM spiking solution containing 0.75 mg/ml microsomes solution to the wells designated for 45 min, 30 min, 15 min, 5 min and 0 min. Pre-incubate the plate at 37° C. for 5 minutes.
(§6) Add 15 µL of NADPH stock solution (6 mM) to all of the wells, and start timing. Immediately, add 135 µL of ACN containing IS to the wells designated as Time 0.
(§7) At 5 min, 15 min, 30 min and 45 min, add 135 µL of ACN containing IS to the wells, respectively.
(§8) After quenching, centrifuge the reaction mixtures at 3220 x g for 10 min.
(§9) Transfer 50 µL of the supernatant from each well into a 96-well sample plate containing 50 µL of ultra pure water (Millipore) for LC/MS analysis.
(§10) The % parent remaining at each incubation time point is calculated by comparing to the peak area ratio (compound peak area/internal standard peak area) at T0 (0 minute incubation). The ln peak area ratio is plotted against time and the gradient of the line is determined. The half-life and metabolism of compounds is calculated based upon a natural log linear regression of the relative peak areas vs time. The half-life and intrinsic clearance (Clint) in microsomes are calculated using the equations below. • In Vitro T ½ (min) = 0.693/Elimination rate of constant (k) • Clint (µL/min/mg of microsomal protein) = (0.693 / In Vitro T ½) (Incubation Volume/ mg of microsomes)

[3] = Metabolic stability in liver microsomes, mouse (MLM); type: in vitro ADME, CD-1 mouse; details: 1 µM compound, NADPH; for half-life at 1 µM: CD-1, mouse, liver microsomes, pH 7.4, 0.5 mg/mL protein, read-out: Metabolic Stability T½ (min), MLM
Protocol: as §1, §2, §3, §4, §5, §6, §7, §8, §9, §10

[4] = ADP-GLO, 10 µM ATP, MBP substrate, read-out: HPK1 IC50
[5] = Table 12-1, read-out: HPK1 inhibition activities

Chain of HPK1 (Q92918 whole entry): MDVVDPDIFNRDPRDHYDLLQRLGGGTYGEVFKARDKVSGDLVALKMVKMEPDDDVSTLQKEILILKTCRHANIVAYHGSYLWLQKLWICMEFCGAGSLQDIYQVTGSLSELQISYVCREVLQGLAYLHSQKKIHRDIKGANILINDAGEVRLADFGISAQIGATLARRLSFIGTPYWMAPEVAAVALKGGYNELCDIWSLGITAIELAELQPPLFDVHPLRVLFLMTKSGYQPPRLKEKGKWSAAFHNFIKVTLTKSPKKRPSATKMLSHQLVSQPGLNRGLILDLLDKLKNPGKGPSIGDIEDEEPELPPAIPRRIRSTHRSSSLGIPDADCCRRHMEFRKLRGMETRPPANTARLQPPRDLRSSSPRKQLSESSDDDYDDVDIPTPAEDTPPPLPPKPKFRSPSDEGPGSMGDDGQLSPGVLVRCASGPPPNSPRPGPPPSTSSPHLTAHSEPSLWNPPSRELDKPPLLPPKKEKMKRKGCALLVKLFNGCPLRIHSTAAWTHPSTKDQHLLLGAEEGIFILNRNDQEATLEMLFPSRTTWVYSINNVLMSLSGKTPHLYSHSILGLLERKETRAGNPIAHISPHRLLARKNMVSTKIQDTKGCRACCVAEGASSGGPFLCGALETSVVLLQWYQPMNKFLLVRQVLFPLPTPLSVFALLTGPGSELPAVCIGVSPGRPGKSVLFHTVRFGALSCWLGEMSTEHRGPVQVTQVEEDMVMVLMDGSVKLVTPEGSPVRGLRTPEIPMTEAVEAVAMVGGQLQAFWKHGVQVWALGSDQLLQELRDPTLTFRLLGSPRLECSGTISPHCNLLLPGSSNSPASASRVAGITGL

Structure (SMILES)	IC50 [1, 4] [nM]	half-life at 1 µM [2] [min]	half-life at 1 µM [3] [min]	IC50 [1, 5] [nM]	Metabolic Stability T½ (min), HLM ([2]; 0.5 mg/mL protein)	Metabolic Stability T½ (min), MLM ([3]; 0.5 mg/mL protein)
COc1cc2c(cc1Nc1ncc(Cl)c(N3CC(CC(=O)O)c4ccccc43)n1)CN(C)CC2 (stereo not shown) [Compound 8, reference compound]	1.5	145	145	–	–	–
COc1cc2c(cc1Nc1ncc(Cl)c(N3CC(C)(CC(=O)O)c4ccc(F)cc43)n1)CN(C)CC2 (stereo not shown) [Compound 10, reference compound]	0.5	51	46.1	–	–	–
COc1cc2c(cc1Nc1ncc(Cl)c(N3CC(C)(CC(=O)O)c4ccccc43)n1)CN(C)CC2 (stereo not shown) [Example 1, 2-(1-(5-chloro-2-((6-methoxy-2-methyl-1,2,3,4-tetrahydroisoquinolin-7-yl)amino)pyrimidin-4-yl)-3-methylindolin-3-yl)acetic acid]	0.5	54.4	84	< 1	–	–
COc1cc2c(cc1Nc1ncc(Cl)c(N3CC(C)(CC(=O)O)c4ccccc43)n1)CN(C)CC2 (single isomer, unassigned) [Example 2, (R)-2-(1-(5-chloro-2-((6-methoxy-2-methyl-1,2,3,4-tetrahydroisoquinolin-7-yl)amino)pyrimidin-4-yl)-3-methylindolin-3-yl)acetic acid or (S)-2-(1-(5-chloro-2-((6-methoxy-2-methyl-1,2,3,4-tetrahydroisoquinolin-7-yl)amino)pyrimidin-4-yl)-3-methylindolin-3-yl)acetic acid]	0.2	90.8	101	< 1	–	–
COc1cc2c(cc1Nc1ncc(Cl)c(N3CC(C(=O)O)c4ccccc43)n1)CN(C)CC2 (stereo not shown) [Compound 7, reference compound]	1	237	> 5000	–	–	–
CN1CCc2cc(F)c(Nc3ncc(Cl)c(N4CC(C)(CC(=O)O)c5ccccc54)n3)cc2C1 (stereo not shown) [Example 4, 2-(1-(5-chloro-2-((6-fluoro-2-methyl-1,2,3,4-tetrahydroisoquinolin-7-yl)amino)pyrimidin-4-yl)-3-methylindolin-3-yl)acetic acid]	0.7	110	79.4	< 1	–	–
CN1CCc2cc(F)c(Nc3ncc(Cl)c(N4C[C@](C)(CC(=O)O)c5ccccc54)n3)cc2C1 (single isomer, unassigned) [Example 5, (R)-2-[1-[5-chloro-2-[(6-fluoro-2-methyl-3,4-dihydro-1H-isoquinolin-7-yl)amino]pyrimidin-4-yl]-3-methyl-indolin-3-yl]acetic acid or (S)-2-[1-[5-chloro-2-[(6-fluoro-2-methyl-3,4-dihydro-1H-isoquinolin-7-yl)amino]pyrimidin-4-yl]-3-methyl-indolin-3-yl]acetic acid]	0.2	–	–	< 1	HLM: 68 min	MLM: 86 min
